Assay results from the kinase profiling compilation of Christmann-Franck et al. (2016).

Tests used:
Assay in all cases: KINOMEscan competition binding
Details in all cases: compound 10.0 µM
[1] = target: PDPK1 (human) (UniProt O15530)
[2] = target: BMPR2 (human) (UniProt Q13873)
[3] = target: DAPK1 (human) (UniProt P53355)
[4] = target: EPHB3 (human) (UniProt P54753)
[5] = target: STK3 (human) (UniProt Q13188)
[6] = target: CIT (human) (UniProt O14578)
[7] = target: DAPK2 (human) (UniProt Q9UIK4)
[8] = target: CAMK4 (human) (UniProt Q16566)
[9] = target: TGFBR1 (human) (UniProt P36897)
[10] = target: CLK2 (human) (UniProt P49760)
[11] = target: PLK4 (human) (UniProt O00444)
[12] = target: AURKA (human) (UniProt O14965)
[13] = test system: EGFR (human), P00533 [L861Q]
[14] = target: PAK3 (human) (UniProt O75914)
[15] = target: MLTK (human) (UniProt Q9NYL2)
[16] = target: TEC (human) (UniProt P42680)
[17] = target: BRAF (human) (UniProt P15056)
[18] = target: CDK3 (human) (UniProt Q00526)
[19] = target: PIM3 (human) (UniProt Q86V86)
[20] = target: MAP3K10 (human) (UniProt Q02779)
[21] = target: CDK8 (human) (UniProt P49336)
[22] = target: CAMK2A (human) (UniProt Q9UQM7)
[23] = target: CDK16 (human) (UniProt Q00536)
[24] = target: FLT1 (human) (UniProt P17948)
[25] = test system: KIT (human), P10721 [V559D/T670I]
[26] = target: MAP3K9 (human) (UniProt P80192)
[27] = test system: LRRK2 (human), Q5S007 [G2019S]
[28] = target: RPS6KA5 KD2 (human) (UniProt O75582)
[29] = target: FRK (human) (UniProt P42685)
[30] = target: TRPM6 (human) (UniProt Q9BX84)
[31] = target: HCK (human) (UniProt P08631)
[32] = target: PI4KB (human) (UniProt Q9UBF8)
[33] = test system: EGFR (human), P00533 [752-759 del]
[34] = target: GAK (human) (UniProt O14976)
[35] = target: PAK1 (human) (UniProt Q13153)
[36] = target: NEK7 (human) (UniProt Q8TDX7)
[37] = target: CLK3 (human) (UniProt P49761)
Sequence of CLK3 (human) (P49761 whole entry, looked up): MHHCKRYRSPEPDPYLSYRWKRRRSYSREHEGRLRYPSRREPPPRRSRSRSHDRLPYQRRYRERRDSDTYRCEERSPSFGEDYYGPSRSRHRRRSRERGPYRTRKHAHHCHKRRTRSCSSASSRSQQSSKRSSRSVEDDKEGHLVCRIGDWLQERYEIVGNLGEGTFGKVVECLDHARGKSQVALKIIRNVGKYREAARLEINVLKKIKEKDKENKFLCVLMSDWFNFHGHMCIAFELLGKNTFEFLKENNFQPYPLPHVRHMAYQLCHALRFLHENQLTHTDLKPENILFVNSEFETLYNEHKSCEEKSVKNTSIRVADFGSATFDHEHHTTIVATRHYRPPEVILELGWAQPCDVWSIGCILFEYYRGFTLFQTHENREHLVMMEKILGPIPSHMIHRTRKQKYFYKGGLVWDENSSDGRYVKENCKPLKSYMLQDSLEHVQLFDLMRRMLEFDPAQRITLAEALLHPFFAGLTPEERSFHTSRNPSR

[38] = target: NEK6 (human) (UniProt Q9HC98)
[39] = target: AAK1 (human) (UniProt Q2M2I8)
[40] = target: LCK (human) (UniProt P06239)
[41] = target: CDK15 (human) (UniProt Q96Q40)
[42] = target: CDK19 (human) (UniProt Q9BWU1)

Sequence of CIT (human) (O14578 whole entry, looked up): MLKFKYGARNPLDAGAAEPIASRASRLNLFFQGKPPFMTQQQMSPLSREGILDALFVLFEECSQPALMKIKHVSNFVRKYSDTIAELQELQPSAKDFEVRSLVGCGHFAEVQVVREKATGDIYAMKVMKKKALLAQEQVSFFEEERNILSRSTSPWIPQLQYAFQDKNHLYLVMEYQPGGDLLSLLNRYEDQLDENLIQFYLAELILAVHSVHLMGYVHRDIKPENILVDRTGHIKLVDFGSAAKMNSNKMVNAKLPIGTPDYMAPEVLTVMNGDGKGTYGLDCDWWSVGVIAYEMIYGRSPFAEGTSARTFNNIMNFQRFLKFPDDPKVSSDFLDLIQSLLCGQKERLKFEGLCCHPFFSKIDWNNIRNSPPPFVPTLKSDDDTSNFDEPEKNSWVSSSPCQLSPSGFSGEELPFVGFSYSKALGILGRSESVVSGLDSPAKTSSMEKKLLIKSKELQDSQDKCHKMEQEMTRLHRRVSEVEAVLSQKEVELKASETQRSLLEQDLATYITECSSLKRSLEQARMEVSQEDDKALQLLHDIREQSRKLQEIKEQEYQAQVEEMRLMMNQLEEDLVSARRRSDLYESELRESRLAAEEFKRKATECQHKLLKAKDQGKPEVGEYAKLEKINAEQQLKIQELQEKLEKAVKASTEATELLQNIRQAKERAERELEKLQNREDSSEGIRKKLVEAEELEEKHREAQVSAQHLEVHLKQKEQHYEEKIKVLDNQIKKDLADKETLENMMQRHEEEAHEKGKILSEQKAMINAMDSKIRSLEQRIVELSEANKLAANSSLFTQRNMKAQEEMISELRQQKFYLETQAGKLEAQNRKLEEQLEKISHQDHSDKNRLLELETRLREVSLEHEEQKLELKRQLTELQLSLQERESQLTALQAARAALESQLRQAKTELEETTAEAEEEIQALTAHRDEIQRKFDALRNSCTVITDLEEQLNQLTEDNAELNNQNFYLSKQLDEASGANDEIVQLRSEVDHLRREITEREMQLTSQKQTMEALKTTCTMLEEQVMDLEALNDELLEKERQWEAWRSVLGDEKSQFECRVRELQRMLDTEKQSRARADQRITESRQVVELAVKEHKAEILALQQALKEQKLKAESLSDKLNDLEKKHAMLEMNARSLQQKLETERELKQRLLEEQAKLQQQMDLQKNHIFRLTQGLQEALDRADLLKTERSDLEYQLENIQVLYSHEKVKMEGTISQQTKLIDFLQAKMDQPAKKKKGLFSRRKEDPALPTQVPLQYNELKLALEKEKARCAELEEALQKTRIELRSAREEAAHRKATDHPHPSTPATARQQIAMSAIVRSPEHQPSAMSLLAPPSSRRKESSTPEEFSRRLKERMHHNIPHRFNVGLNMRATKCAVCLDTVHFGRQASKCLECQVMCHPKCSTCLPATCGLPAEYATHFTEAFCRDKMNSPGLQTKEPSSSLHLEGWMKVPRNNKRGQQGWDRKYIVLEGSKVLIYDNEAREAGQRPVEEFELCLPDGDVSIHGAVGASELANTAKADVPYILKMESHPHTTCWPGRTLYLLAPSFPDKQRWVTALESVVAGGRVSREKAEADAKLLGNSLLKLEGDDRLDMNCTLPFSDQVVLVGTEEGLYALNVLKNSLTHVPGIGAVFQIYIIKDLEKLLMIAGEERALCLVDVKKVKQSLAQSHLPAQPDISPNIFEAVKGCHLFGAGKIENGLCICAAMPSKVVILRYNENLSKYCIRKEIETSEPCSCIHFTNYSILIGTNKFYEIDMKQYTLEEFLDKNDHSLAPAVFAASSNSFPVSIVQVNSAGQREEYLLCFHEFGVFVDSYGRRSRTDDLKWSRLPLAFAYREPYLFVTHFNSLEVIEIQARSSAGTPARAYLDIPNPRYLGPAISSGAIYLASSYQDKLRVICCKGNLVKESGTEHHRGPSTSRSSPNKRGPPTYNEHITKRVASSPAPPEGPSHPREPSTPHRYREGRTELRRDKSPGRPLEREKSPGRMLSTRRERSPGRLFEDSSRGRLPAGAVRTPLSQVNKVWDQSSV
Sequence of EPHB3 (human) (P54753 whole entry, looked up): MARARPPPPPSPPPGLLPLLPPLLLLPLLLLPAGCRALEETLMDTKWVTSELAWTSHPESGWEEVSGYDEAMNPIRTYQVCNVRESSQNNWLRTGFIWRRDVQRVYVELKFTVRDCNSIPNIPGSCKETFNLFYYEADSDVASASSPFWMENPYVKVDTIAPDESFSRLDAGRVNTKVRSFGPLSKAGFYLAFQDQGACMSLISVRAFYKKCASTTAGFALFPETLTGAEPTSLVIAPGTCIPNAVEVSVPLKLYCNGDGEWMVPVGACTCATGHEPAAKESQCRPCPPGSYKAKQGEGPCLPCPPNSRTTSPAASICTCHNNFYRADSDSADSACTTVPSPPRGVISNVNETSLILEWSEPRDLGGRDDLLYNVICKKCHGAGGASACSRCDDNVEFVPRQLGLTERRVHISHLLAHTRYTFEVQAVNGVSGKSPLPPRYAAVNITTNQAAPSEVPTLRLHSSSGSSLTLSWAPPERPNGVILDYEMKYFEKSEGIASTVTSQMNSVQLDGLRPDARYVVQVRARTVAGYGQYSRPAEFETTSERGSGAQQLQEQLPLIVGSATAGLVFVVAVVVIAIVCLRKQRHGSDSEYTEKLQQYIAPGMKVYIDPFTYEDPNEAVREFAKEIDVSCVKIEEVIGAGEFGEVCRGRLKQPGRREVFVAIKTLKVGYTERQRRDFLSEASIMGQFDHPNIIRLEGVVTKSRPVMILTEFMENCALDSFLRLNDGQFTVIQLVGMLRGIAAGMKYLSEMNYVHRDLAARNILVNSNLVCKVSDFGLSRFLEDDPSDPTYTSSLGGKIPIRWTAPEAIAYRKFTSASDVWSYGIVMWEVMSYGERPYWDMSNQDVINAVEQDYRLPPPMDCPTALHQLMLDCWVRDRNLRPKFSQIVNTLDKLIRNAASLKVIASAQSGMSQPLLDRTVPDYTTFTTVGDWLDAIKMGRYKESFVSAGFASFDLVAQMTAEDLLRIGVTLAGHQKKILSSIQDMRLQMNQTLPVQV
Sequence of DAPK1 (human) (P53355 whole entry, looked up): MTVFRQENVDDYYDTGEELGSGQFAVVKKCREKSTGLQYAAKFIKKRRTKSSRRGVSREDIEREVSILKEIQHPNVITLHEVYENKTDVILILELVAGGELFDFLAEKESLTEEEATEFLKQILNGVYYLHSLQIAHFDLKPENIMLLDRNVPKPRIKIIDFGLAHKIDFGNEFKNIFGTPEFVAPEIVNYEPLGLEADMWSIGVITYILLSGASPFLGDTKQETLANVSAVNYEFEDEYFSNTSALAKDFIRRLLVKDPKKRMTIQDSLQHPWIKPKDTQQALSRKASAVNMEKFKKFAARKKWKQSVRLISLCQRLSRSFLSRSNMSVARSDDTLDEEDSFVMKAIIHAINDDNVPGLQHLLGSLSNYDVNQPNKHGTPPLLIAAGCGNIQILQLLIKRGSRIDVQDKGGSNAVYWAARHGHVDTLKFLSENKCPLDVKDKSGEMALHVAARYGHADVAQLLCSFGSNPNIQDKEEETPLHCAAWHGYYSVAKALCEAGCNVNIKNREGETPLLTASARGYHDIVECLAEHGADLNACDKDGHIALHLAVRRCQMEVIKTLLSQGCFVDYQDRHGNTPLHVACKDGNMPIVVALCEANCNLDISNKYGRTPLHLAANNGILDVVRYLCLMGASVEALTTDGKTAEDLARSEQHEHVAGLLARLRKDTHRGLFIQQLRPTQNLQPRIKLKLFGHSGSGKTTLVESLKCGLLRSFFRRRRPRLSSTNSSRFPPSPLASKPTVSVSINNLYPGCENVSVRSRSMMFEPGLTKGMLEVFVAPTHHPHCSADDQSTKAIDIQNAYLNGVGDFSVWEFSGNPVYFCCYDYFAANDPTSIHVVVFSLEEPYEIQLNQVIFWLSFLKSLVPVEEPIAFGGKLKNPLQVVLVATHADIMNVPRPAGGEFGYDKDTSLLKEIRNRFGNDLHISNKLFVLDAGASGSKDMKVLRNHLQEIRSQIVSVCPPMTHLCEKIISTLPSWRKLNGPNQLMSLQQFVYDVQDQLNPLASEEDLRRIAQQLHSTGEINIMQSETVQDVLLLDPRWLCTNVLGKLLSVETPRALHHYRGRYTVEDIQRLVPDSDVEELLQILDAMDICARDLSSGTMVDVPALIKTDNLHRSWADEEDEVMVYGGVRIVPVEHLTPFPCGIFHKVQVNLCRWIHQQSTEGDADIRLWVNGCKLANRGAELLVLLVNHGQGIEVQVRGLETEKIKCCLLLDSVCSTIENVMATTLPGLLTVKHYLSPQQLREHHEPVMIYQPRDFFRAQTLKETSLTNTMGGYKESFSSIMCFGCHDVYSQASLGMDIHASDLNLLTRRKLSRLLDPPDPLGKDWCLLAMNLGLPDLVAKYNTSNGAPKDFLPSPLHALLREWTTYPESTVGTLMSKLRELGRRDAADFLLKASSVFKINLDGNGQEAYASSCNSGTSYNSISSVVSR

Structure (SMILES): Cc1cc([C@@H](C)Nc2ccccc2C(=O)O)c2nc(N3CCOCC3)cc(=O)n2c1
- kinase still bound, per cent of control [1]: 100%
- kinase still bound, per cent of control [2]: 84%
- kinase still bound, per cent of control [3]: 100%
- kinase still bound, per cent of control [4]: 100%
- kinase still bound, per cent of control [5]: 97%
- kinase still bound, per cent of control [6]: 88%
- kinase still bound, per cent of control [7]: 74%
- kinase still bound, per cent of control [8]: 100%
- kinase still bound, per cent of control [9]: 100%
- kinase still bound, per cent of control [10]: 100%
- kinase still bound, per cent of control [11]: 100%
- kinase still bound, per cent of control [12]: 75%
- kinase still bound, per cent of control [13]: 76%
- kinase still bound, per cent of control [14]: 12%
- kinase still bound, per cent of control [15]: 100%
- kinase still bound, per cent of control [16]: 91%
- kinase still bound, per cent of control [17]: 74%
- kinase still bound, per cent of control [18]: 92%
- kinase still bound, per cent of control [19]: 100%
- kinase still bound, per cent of control [20]: 96%
- kinase still bound, per cent of control [21]: 100%
- kinase still bound, per cent of control [22]: 66%
- kinase still bound, per cent of control [23]: 100%
- kinase still bound, per cent of control [24]: 96%
- kinase still bound, per cent of control [25]: 64%
- kinase still bound, per cent of control [26]: 100%
- kinase still bound, per cent of control [27]: 90%
- kinase still bound, per cent of control [28]: 100%
- kinase still bound, per cent of control [29]: 47%
- kinase still bound, per cent of control [30]: 64%
- kinase still bound, per cent of control [31]: 60%
- kinase still bound, per cent of control [32]: 89%
- kinase still bound, per cent of control [33]: 100%
- kinase still bound, per cent of control [34]: 83%
- kinase still bound, per cent of control [35]: 97%
- kinase still bound, per cent of control [36]: 98%
- kinase still bound, per cent of control [37]: 95%
- kinase still bound, per cent of control [38]: 100%
- kinase still bound, per cent of control [39]: 91%
- kinase still bound, per cent of control [40]: 81%
- kinase still bound, per cent of control [41]: 100%
- kinase still bound, per cent of control [42]: 100%
